Experiments:
Primary osteoblast cells = assay: Assay of alkaline phosphatase activity in cultured osteoblasts; assay type: cell-based, rat
Protocol: Primary osteoblast cultures: Primary osteoblast cells were prepared from calvaria of 18-day-old fetal Sprague-Dawley (SD) rats according to the following method: Pregnant rats were put in anesthesia using intraperitoneal injection of trichloroacetaldehyde (200 mg/kg). The calvaria of the fetal rats were then dissected with aseptic technique. Soft tissues were removed under a dissecting microscope. The calvaria were divided into small pieces and then treated with 0.1% collagenase (Sigma Chemical, St. Louis, Mo.) solution for 10 minutes at 37° C. The cells released from the calvariae by two 20-minute sequential collagenase digestions were pooled and filtered through 70 μm nylon filters (Falcon, BD BioSciences, San Jose, Calif.). The cells were then grown on plastic cell culture dishes in 95:5 air-CO2 with Dulbecco's modified Eagle's medium (DMEM) (Gibco, Grand Island, N.Y.) which was supplemented with 20 mM HEPES and 10% heat-inactivated FCS, 2 mM-glutamine, penicillin (100 U/ml) and streptomycin (100 μg/ml) (pH adjusted to 7.6). The cell medium was changed twice a week. Osteoblasts were confirmed by morphology and expression of alkaline phosphatase (ALP). To examine the maturation of osteoblasts, cells were cultured for up to 14 days in a growth medium containing ascorbic acid (50 μg/ml) (Sigma Chemical, St. Louis, Mo.) and β-glycerophosphate (10 mM) (Sigma Chemical, St. Louis, Mo.) and the medium was changed every 3 day. Assay of alkalinephosphatase activity: Cells cultured in 6-well plates in the presence or absence of Indazole 1 were harvested in 1 ml of 0.2% Nonidet P-40 and cell suspension was disrupted by sonication. After centrifugation at 1500 g for 5 min, ALP activity in the supernatant was measured by the method of Lowry et al (1954) J Biol Chem 207:19–37.

Male SD rats = assay: Local injection into proximal tibia, bone histomorphometry (bone growth); assay type: in vivo, rat; details: L-NAME 0.6 nmole/day given with Indazole 1, versus Indazole 1 alone
Protocol: Assay of bone resorption of osteoclast: Osteoclast precursors were isolated from rat long bones as mentioned above. The cells were re-suspended in a complete DMEM medium and plated into a calcium phosphate apatite-coated 24-well plate, OAAS (Oscotec, OCT USA Inc.) at 1×10^6 cells/0.5 ml/well. The cells were cultured for 5 days in the presence of M-CSF (20 ng/ml) plus sRANKL (50 ng/ml). Indazole 1 was injected daily for additional 3 days in the absence of M-CSF and sRANKL. Culture was terminated on day 8 and the remaining cells in the plate were lysed using 1 N NaOH. Five images per well were obtained using an inverted microscope (200×), and resorbed area was measured using an image analyzer. Local injection Male SD rats weighing 70–88 gm were used. Implantation of a cannula (22G) was done from the posteriolateral side into the proximal tibial metaphysis in both limbs of rats anesthetized with pentobarbital. The cannula had its outer end in the subcutaneous tissue. Indazole 1 was percutaneously injected through the cannula into the proximal tibia once/day for 1 week. The same concentration of DMSO diluted with normal saline was injected into the right side for comparison. On day 14, the rats were sacrificed and tibiae were fixed in 10% formaldehyde for 48 h at 4° C. Bone histomorphometry: After formalin fixation of tibia was completed, the tibiae were then decalcified in 0.5 N hydrochloric acid, dehydrated in an ascending series of ethanol solution and acetone, and embedded in paraffin. Serial sections (5 μm) were cut longitudinally and stained with Mayer's hematoxylin-eosin solution (Yang et al. (1993) Calcif Tissue Int 52:57–61). Images of the growth plate and proximal tibia were photographed using a photoMicroGraphic Digitize integrate System (MGDS; Total-Integra Technology Co., Ltd., Taipei, Taiwan). Bone volume measurements were performed on the whole secondary spongiosa, which is located under the primary spongiosa and characterized by a network of larger trabeculae. Bone volumes were calculated using an image analysis software. All measurements were done in a single-blind fashion. Bone growth: Male young rats (SD) weighing 70–90 gm were divided into six groups. The average weight of the rats in each group was 73.9±1.1 gm. Indazole 1 was dissolved in DMSO and diluted with saline to a final concentration of 10 μM. One of the six groups was a control group, and the other groups were punctuated with a needle cannula alone, injected with a vehicle using a needle cannula (day 1, once), injected with Indazole 1 (day 1, once), injected with a vehicle using a needle cannula (days 1–7, daily), and injected with Indazole 1 (days 1–7, daily), respectively. […] Trabecular bone in the secondary spongiosa increased by 90% after local injection of Indazole 1 for 7 days.

## O=c1onc2cnc3ccccc3n12 [ODQ]
Primary osteoblast cells; ODQ 20 μM
  effect on the increase of ALP activity by Indazole 1: antagonized

## COC(=O)[C@@]1(OC)C[C@H]2O[C@]1(C)n1c3ccccc3c3c4c(c5c6ccccc6n2c5c31)C(=O)N(C)C4 [KT5823]
Primary osteoblast cells; KT5823 2 μM
  effect on the increase of ALP activity by Indazole 1: antagonized

## COC(=O)[C@@H](N)CCCNC(=N)N[N+](=O)[O-] [L-NAME, N^G-nitro-L-arginine-methylester, reference compound]
Primary osteoblast cells; L-NAME 60 μM
  effect on the increase of ALP activity by Indazole 1: antagonized
Male SD rats
  effect on enhancement of bone formation in the secondary spongiosa by Indazole 1: significantly attenuated

— patent US7160916B2, “Method of increasing bone density or treating osteoporosis” (Yung Shin Pharmaceutical Ind. Co., Ltd., priority 2003, dated 2007)
